Results from patent US20260049105A1, “SELECTIVE MC4R LIGAND FOR TREATING OBESITY AND COGNITIVE LOSS” (ARIZONA BOARD OF REGENTS ON BEHALF OF THE UNIVERSITY OF …, priority 2022, published 2026).

Columns and labels:
hMC4R [1] = target: T1, hMC4R (Homo sapiens, UniProt P32245); experiment: Competitive receptor binding assay, whole HEK293 cells, 125I-NDP-α-MSH; conditions: hM4CR; for inhibition at 10 µM: 40 min, percentage of [125I]NDP-α-MSH displacement at 10 μM, read-out: BE%
T1 construct: expressed in transfected cells; host or cells: HEK293
Method: (§1) Competition binding experiments were performed on whole cells. The transfected HEK293 cell line with hMC4Rs were seeded on 96 well plates, 48 hours before the assay, 100,000 cells/well. For the assay, the medium was removed and cells were washed twice with a freshly prepared binding buffer containing 100% minimum essential medium with Earle's salt (MEM, GIBCO), 25 mM HEPES (pH 7.4), 0.2% bovine serum albumin, 1 mM 1,10-phenanthroline, 0.5 mg/L leupeptin, and 200 mg/L bacitracin. […] The medium was subsequently removed and each well was washed twice with the assay buffer. The cells are lysed by the addition of 250 μL of 0.1 NaOH and 250 μL of 1% Triton X-100. […] Data were analyzed using Graphpad Prism 6.0 (Graphpad Software, San Diego, CA).
IC50 and EC50 values represent the mean of duplicate experiments performed in triplicate. IC50 and EC50 estimates and their associated standard errors were determined by fitting the data using nonlinear least-squares analysis, with the help of Graphpad Prism 6.0 (Graphpad Software, San Diego, CA). […]

hMC4R [2] = target: T1, hMC4R; experiment: Adenylate cyclase (cAMP) assay in transfected HEK293 cells; type: cell-based; conditions: hM4CR; 50% maximal intracellular cAMP accumulation, N=4
hMC5R [3] = target: T2, hMC5R (Homo sapiens, UniProt P33032); experiment: Competitive receptor binding assay, whole HEK293 cells, 125I-NDP-α-MSH; conditions: 40 min; hM5CR; percentage of NDP-α-MSH displacement at 10 μM; read-out: BE %
T2 construct: expressed in transfected cells; host or cells: HEK293
Method: [The procedure below names another target; the source lists this target under the same test.] as §1
(§2) IC50 and EC50 values represent the mean of duplicate experiments performed in triplicate. IC50 and EC50 estimates and their associated standard errors were determined by fitting the data using nonlinear least-squares analysis, with the help of Graphpad Prism 6.0 (Graphpad Software, San Diego, CA).
(§3) NA indicates 0% cAMP accumulation observed at 10 μM. The peptides were tested over a range of concentrations from 10^-10 to 10^-5 M.

hMC4R [4] = target: T1, hMC4R; experiment: Adenylate cyclase (cAMP) assay in transfected HEK293 cells; type: cell-based; conditions: HEK293, 0.05 h; hM4CR; percentage of cAMP produced at 10 μM in relation to MT-II; read-out: Act%
Method: The cells were seeded on 96 well plates 48 hours before the assay, (100,000 cells/well). For the assay, the medium was removed and cells were rinsed with 1 mL of MEM buffer (GIBCO) or with Earle's balanced salt solution (EBSS, GIBCO). An aliquot (0.4 mL) of Earle's balanced salt solution was placed in each well along with isobutylmethylxanthine (IBMX; 5 μL; 0.5 mM) for 1 minute at 37° C. Varying concentrations of melanotropins (0.1 mL) were added and the cells incubated for 3 minutes at 37° C. The reaction was stopped by aspirating the buffer and adding ice-cold Tris/EDTA buffer to each well (0.15 mL). The 96 well plates were covered and placed on ice. After dislodging the cells, the plates were placed in a boiling water bath for 15 minutes. The cell lysate was then centrifuged for 10 minutes (4000 rpm), and 50 μL of the supernatant was aliquoted into perkinElmer glass fiber filter plate. cAMP content was measured by competitive binding assay in addition to 50 μL H^3 cAMP and 100 μL PKA. Then the system was placed on ice for 2 hours and then vacuum and filtered. 100 μL of the OptiPhase Supermix scintillation fluid was added to the plate. The plates stayed for 8 hours and then read by MicroBeta radiation plate reader. IC50 and EC50 values represent the mean of duplicate experiments performed in triplicate. […] NA indicates 0% cAMP accumulation observed at 10 μM. The peptides were tested over a range of concentrations from 10^-10 to 10^-5 M.

hMC1R [5] = target: T3, hMC1R (Homo sapiens, UniProt Q01726); experiment: Competitive receptor binding assay, whole HEK293 cells, 125I-NDP-α-MSH; conditions: 40 min; hM1CR; percentage of NDP-α-MSH displacement at 10 μM; read-out: BE %
T3 construct: expressed in transfected cells; host or cells: HEK293
Method: [The procedure below names another target; the source lists this target under the same test.] (§4) Competition binding experiments were performed on whole cells. The transfected HEK293 cell line with hMC4Rs were seeded on 96 well plates, 48 hours before the assay, 100,000 cells/well. For the assay, the medium was removed and cells were washed twice with a freshly prepared binding buffer containing 100% minimum essential medium with Earle's salt (MEM, GIBCO), 25 mM HEPES (pH 7.4), 0.2% bovine serum albumin, 1 mM 1,10-phenanthroline, 0.5 mg/L leupeptin, and 200 mg/L bacitracin. […] The medium was subsequently removed and each well was washed twice with the assay buffer. The cells are lysed by the addition of 250 μL of 0.1 NaOH and 250 μL of 1% Triton X-100. The lysed cell was transferred to the 12×75 mm glass tubes and the radioactivity was measured by Wallac 1470 WIZARD Gamma Counter. Data were analyzed using Graphpad Prism 6.0 (Graphpad Software, San Diego, CA).
as §2, §3

hMC3R [6] = target: T4, hMC3R (Homo sapiens, UniProt P41968); experiment: as above; conditions: 40 min; hM3CR; percentage of NDP-α-MSH displacement at 10 μM; read-out: BE %
T4 construct: expressed in transfected cells; host or cells: HEK293
Method: [The procedure below names another target; the source lists this target under the same test.] as §4, §2, §3

hMC1R [7] = target: T3, hMC1R; experiment: Adenylate cyclase (cAMP) assay in transfected HEK293 cells; type: cell-based; conditions: HEK293, 0.05 h; hM1CR; cAMP at 10 μM in relation to MT-II; read-out: Act %
Method: (§5) HEK293 cells transfected with human melanocortin receptors were grown to confluence in MEM medium (GIBCO) containing 10% fetal bovine serum, 100 units/mL penicillin and streptomycin, and 1 mM sodium pyruvate. The cells were seeded on 96 well plates 48 hours before the assay, (100,000 cells/well). For the assay, the medium was removed and cells were rinsed with 1 mL of MEM buffer (GIBCO) or with Earle's balanced salt solution (EBSS, GIBCO). An aliquot (0.4 mL) of Earle's balanced salt solution was placed in each well along with isobutylmethylxanthine (IBMX; 5 μL; 0.5 mM) for 1 minute at 37° C. Varying concentrations of melanotropins (0.1 mL) were added and the cells incubated for 3 minutes at 37° C. The reaction was stopped by aspirating the buffer and adding ice-cold Tris/EDTA buffer to each well (0.15 mL). The 96 well plates were covered and placed on ice. After dislodging the cells, the plates were placed in a boiling water bath for 15 minutes. The cell lysate was then centrifuged for 10 minutes (4000 rpm), and 50 μL of the supernatant was aliquoted into perkinElmer glass fiber filter plate. cAMP content was measured by competitive binding assay in addition to 50 μL H^3 cAMP and 100 μL PKA. Then the system was placed on ice for 2 hours and then vacuum and filtered. 100 μL of the OptiPhase Supermix scintillation fluid was added to the plate. The plates stayed for 8 hours and then read by MicroBeta radiation plate reader.
as §2, §3

hMC5R [8] = target: T2, hMC5R; experiment: as above; type: cell-based; conditions: hM5CR; for Emax at 10 µM: HEK293, 0.05 h, cAMP at 10 μM in relation to MT-II, read-out: Act %
Method: as §5, §2, §3

hMC3R [9] = target: T4, hMC3R; experiment: as above; type: cell-based; conditions: hM3CR; for Emax at 10 µM: HEK293, 0.05 h, cAMP at 10 μM in relation to MT-II, read-out: Act %
Method: as §5, §2, §3

T3 sequence (Q01726 whole entry): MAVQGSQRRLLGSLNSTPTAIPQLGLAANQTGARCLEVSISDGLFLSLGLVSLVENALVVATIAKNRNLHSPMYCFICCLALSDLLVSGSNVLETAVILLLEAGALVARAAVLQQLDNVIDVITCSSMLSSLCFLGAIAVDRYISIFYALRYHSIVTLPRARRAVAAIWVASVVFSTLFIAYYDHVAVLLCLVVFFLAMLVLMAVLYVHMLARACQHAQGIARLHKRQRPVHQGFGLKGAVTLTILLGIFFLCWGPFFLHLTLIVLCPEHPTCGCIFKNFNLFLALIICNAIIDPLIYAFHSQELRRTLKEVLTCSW
T2 sequence (P33032 whole entry): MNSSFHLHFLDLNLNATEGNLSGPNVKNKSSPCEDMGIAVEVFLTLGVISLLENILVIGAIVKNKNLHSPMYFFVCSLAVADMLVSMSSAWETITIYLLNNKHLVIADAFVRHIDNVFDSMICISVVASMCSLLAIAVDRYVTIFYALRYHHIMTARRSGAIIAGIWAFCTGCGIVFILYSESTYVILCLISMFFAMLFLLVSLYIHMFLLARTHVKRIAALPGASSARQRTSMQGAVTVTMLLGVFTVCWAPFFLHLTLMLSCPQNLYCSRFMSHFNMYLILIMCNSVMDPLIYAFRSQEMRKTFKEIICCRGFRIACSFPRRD
T4 sequence (P41968 whole entry): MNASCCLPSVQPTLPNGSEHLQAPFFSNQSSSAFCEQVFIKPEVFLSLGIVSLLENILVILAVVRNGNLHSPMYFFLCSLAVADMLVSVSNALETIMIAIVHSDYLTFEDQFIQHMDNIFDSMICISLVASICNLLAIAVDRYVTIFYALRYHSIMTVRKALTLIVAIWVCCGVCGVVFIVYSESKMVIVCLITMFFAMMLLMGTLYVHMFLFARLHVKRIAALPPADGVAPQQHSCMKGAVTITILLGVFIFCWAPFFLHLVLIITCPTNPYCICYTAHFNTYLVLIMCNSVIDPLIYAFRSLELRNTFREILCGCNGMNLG
T1 sequence (P32245 whole entry): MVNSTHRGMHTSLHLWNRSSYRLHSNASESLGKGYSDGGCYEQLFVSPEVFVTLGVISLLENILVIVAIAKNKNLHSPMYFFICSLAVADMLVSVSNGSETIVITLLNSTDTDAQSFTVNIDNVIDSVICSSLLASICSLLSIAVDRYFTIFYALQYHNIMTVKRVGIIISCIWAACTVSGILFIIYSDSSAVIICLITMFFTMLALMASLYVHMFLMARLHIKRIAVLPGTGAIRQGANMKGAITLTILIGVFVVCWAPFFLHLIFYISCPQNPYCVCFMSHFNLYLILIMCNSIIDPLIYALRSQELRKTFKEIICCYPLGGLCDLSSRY

Structure (SMILES)	inhibition at 10 µM (hMC4R [1]) [%]	EC50 (hMC4R [2]) [µM]	inhibition at 10 µM (hMC5R [3]) [%]	Emax at 10 µM (hMC4R [4]) [%]	inhibition at 10 µM (hMC1R [5]) [%]	inhibition at 10 µM (hMC3R [6]) [%]	Emax at 10 µM (hMC1R [7]) [%]	Emax at 10 µM (hMC5R [8]) [%]	Emax at 10 µM (hMC3R [9]) [%]	IC50 (hMC4R [1]; concentration of peptide at 50% specific binding, N=4) [µM]	EC50 (hMC5R [8]; cAMP accumulation, N=4) [µM]	EC50 (hMC3R [9]; cAMP accumulation, N=4) [µM]
CC(=O)N[C@@H](CCCNC(=N)N)C(=O)N[C@H]1CC(=O)NCCCC[C@@H](C(N)=O)NC(=O)C[C@H](Cc2c[nH]c3ccccc23)NC(=O)[C@H](CCCNC(=N)N)NC(=O)[C@@H](Cc2ccccc2)NC(=O)[C@@H]2CCCCN2C1=O [compound 1, Ac-Arg-cyclo[Asp-Pip-D-Phe-Arg-BTrp-Lys]-NH2]	0	> 1	66	63	100	60	88	95	88	–	–	–
CC(=O)N[C@@H](CCCNC(=N)N)C(=O)N[C@H]1CC(=O)NCCCC[C@@H](C(N)=O)NC(=O)[C@H](Cc2c[nH]c3ccccc23)NC(=O)C[C@H](CCCNC(=N)N)NC(=O)[C@@H](Cc2ccc(F)cc2)NC(=O)[C@@H]2CCCCN2C1=O [compound 5, Ac-Arg-cyclo[Asp-Pip-D-Phe(4-F)-βArg-Trp-Lys]-NH2]	23	> 1	0	84	100	100	100	62	59	> 1	> 1	> 1
